From PubChem BioAssay AID1963840 (Molecular Pharmacology Branch, DTP, NCI, 2024)
pIC50: −log10 of the molar value.

Tested on: 695427-040-R-J1-PDC complex spheroid viability
Experiment: Anticancer human tumor 695427-040-R-J1-PDC patient-derived colon adenocarcinoma cell line growth inhibition [POLQ]
Details: for pIC50: curve of first compound; for viability, T/C: stronger effect = lower value
Procedure, shortened: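 Patient-derived tumour cells were co-cultured with HUVEC and mesenchymal stem cells as multicellular spheroids at 37 °C. They were treated with POLQ inhibitors (novobiocin, ART-558, RP6685) alone or combined with other agents. Top concentrations were at or near clinical Cmax (otherwise 10 microM; SN-38 at 1 microM), decreasing in half-log steps.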
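Further: spheroids exposed to compounds for seven days.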
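Wherever viability, T/C is given: 100% = DMSO vehicle control viability.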

For `CCc1cc2c(N3CCc4c(cc(Cn5ccnc5)cc4-c4cn(C)nc4C(F)(F)F)C3=O)ccnc2c(OC)n1` + COC1C(OC(N)=O)C(O)C(Oc2ccc3c(O)c(NC(=O)c4ccc(O)c(CC=C(C)C)c4)c(=O)oc3c2C)OC1(C)C, the pIC50 (second compound 0.0316 µM) was less than 5.00, the pIC50 (second compound 0.1 µM) was less than 5.00 and the pIC50 (second compound 0.316 µM) was less than 5.00. The pIC50 (second compound 1 µM) was less than 5.00, the pIC50 (second compound 3.16 µM) was less than 5.00 and the pIC50 (second compound 10 µM) was less than 5.00. For the same molecule, the viability, T/C (second compound 0.0316 µM, first compound 0.0316 µM) was 110%, the viability, T/C (second compound 0.0316 µM, first compound 0.1 µM) was 111% and the viability, T/C (second compound 0.0316 µM, first compound 0.316 µM) was 106%. For the same molecule, the viability, T/C (second compound 0.0316 µM, first compound 1 µM) was 116%, the viability, T/C (second compound 0.0316 µM, first compound 3.16 µM) was 114% and the viability, T/C (second compound 0.0316 µM, first compound 10 µM) was 97.2%. It also gave a viability, T/C (second compound 0.1 µM, first compound 0.0316 µM) of 111%, a viability, T/C (second compound 0.1 µM, first compound 0.1 µM) of 103% and a viability, T/C (second compound 0.1 µM, first compound 0.316 µM) of 115%. The viability, T/C (second compound 0.1 µM, first compound 1 µM) was 109%, the viability, T/C (second compound 0.1 µM, first compound 3.16 µM) was 116% and the viability, T/C (second compound 0.1 µM, first compound 10 µM) was 105%. It also gave a viability, T/C (second compound 0.316 µM, first compound 0.0316 µM) of 111%, a viability, T/C (second compound 0.316 µM, first compound 0.1 µM) of 116% and a viability, T/C (second compound 0.316 µM, first compound 0.316 µM) of 108%. For the same molecule, the viability, T/C (second compound 0.316 µM, first compound 1 µM) was 101%, the viability, T/C (second compound 0.316 µM, first compound 3.16 µM) was 109% and the viability, T/C (second compound 0.316 µM, first compound 10 µM) was 95.6%. For the same molecule, the viability, T/C (second compound 1 µM, first compound 0.0316 µM) was 116%, the viability, T/C (second compound 1 µM, first compound 0.1 µM) was 112% and the viability, T/C (second compound 1 µM, first compound 0.316 µM) was 109%. The viability, T/C (second compound 1 µM, first compound 1 µM) was 98.3%, the viability, T/C (second compound 1 µM, first compound 3.16 µM) was 111% and the viability, T/C (second compound 1 µM, first compound 10 µM) was 101%. For the same molecule, the viability, T/C (second compound 3.16 µM, first compound 0.0316 µM) was 103%, the viability, T/C (second compound 3.16 µM, first compound 0.1 µM) was 104% and the viability, T/C (second compound 3.16 µM, first compound 0.316 µM) was 107%. The viability, T/C (second compound 3.16 µM, first compound 1 µM) was 105%, the viability, T/C (second compound 3.16 µM, first compound 3.16 µM) was 117% and the viability, T/C (second compound 3.16 µM, first compound 10 µM) was 101%. The viability, T/C (second compound 10 µM, first compound 0.0316 µM) was 111%, the viability, T/C (second compound 10 µM, first compound 0.1 µM) was 92.7% and the viability, T/C (second compound 10 µM, first compound 0.316 µM) was 108%. For the same molecule, the viability, T/C (second compound 10 µM, first compound 1 µM) was 106%, the viability, T/C (second compound 10 µM, first compound 3.16 µM) was 113% and the viability, T/C (second compound 10 µM, first compound 10 µM) was 96.3%.
